# Reference: patent US12595264B2, “Heterocyclic GLP-1 agonists” (Gasherbrum Bio, Inc., priority 2020, dated 2026)
# Molecular target: T1, GLP-1 Receptor (Homo sapiens, UniProt P43220)
# T1 construct: host or cells: HEK293/GLP1R/CRE-LUC (HEK293/CRE-Luc stably expressing GLP-1R)
# Experiment: GLP-1R agonist cAMP stimulation assay (HEK293/GLP1R/CRE-LUC cells, HTRF cAMP dynamic 2 kit)
# Assay type: cell-based
# Details: HEK293/CRE-Luc cell line (HDB), 30 min incubation, read-out: GLP1R cAMP Stimulation DR: EC50 (nM) [Species: Human, Assay Cell Line: HDB]
# Description: Activation of GLP-1 receptor is known to stimulate cyclic AMP (cAMP) production in cells which indicates primary coupling to the Gαs subunit of the G protein heterotrimeric complex.
# To optimize functional activity directed toward Gαs coupling, a HEK293/CRE-Luc cell line developed by HDB stably expressing the GLP-1 Receptor was used. 200×concentration of compound working solutions were prepared (Agilent Technologies Bravo) with ½ log serial dilution in 384-well Echo LDV plate (Labcyte, Cat #LP-0200). 50 nL/well 200×concentration of compound working solutions were moved to 384-well white low volume plate (Greiner, Cat #784075) using Labcyte ECHO550. 1×10^5 cells/mL HEK293/GLP1R/CRE-LUC(HD Biosciences) cell suspensions prepared with assay buffer[DPBS containing 0.5 mM IBMX (Sigma, Cat #15879) and 0.1% BSA (GENVIEW, Cat #FA016-100g)], 10 uL cell suspensions were added to each well of previous generated assay plate which already contains 50n1 compound at 200× concentration using ThermoFisher Multidrop Combi (1000 cells/well). Seal the plate and incubate at 37° C. with 5% CO2 for 30 min.
# After incubation the cAMP assay signal was generated using cAMP dynamic 2 Kit (Cisbio). 5 μL cAMP-d2 working solution was added to each well, followed with 5 μL Anti-cAMP antibody-cryptate working solution added to each well using ThermoFisher Multidrop Combi. Incubate at room temperature for 1 hour protected from light. Read the fluorescence at 665 and 615 nm with Reader PerkinElmer EnVision. % Activity=100%×(mean RLU of test sample−mean RLU of vehicle control)/(mean RLU of MAX control−mean RLU of vehicle control))
# T1 sequence (P43220 24-463): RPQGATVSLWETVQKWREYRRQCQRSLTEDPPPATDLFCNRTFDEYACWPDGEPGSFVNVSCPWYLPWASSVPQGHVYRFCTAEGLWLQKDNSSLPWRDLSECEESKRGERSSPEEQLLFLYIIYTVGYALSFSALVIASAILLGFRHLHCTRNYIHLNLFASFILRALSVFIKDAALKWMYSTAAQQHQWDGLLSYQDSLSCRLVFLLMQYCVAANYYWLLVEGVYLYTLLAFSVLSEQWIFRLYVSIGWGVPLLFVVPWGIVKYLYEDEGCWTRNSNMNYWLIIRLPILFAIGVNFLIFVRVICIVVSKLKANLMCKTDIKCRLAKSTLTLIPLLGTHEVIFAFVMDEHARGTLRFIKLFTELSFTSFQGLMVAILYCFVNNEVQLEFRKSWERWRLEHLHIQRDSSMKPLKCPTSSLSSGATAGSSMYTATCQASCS
row,EC50 [nM],Compound
1,0.42,"CCP(=O)(CC)c1ccc(-n2ccn(-c3c(-c4cc(C)c(F)c(C)c4)nn4c3C(C)N(C(=O)c3cc5cc(C6CCC(F)(F)CC6)ccc5n3[C@@]3(c5noc(=O)[nH]5)C[C@@H]3C)CC4)c2=O)cc1NC (single isomer, unassigned) [Compound 116a]"
2,0.15,"CCP(=O)(CC)c1ccc(-n2ccn(-c3c(-c4cc(C)c(F)c(C)c4)nn4c3C(C)N(C(=O)c3cc5cc(N6CCOC(C)(C)C6)ccc5n3[C@@]3(c5noc(=O)[nH]5)C[C@@H]3C)CC4)c2=O)cc1NC (single isomer, unassigned) [Compound 115a]"
3,1.86,"Cc1cc(-c2nn3c(c2-n2ccn(-c4ccc5c(cnn5C)c4)c2=O)CN(C(=O)c2cc4cc(C5CCOCC5)ccc4n2[C@@]2(c4noc(=O)[nH]4)C[C@@H]2C)CC3)cc(C)c1F [Compound 105a, 3-((1S,2S)-1-(2-(2-(4-fluoro-3,5-dimethylphenyl)-3-(3-(1-methyl-1H-indazol-5-yl)-2-oxo-2,3-dihydro-1H-imidazol-1-yl)-4,5,6,7-tetrahydropyrazolo[1,5-a]pyrazine-5-carbonyl)-5-(tetrahydro-2H-pyran-4-yl)-1H-indol-1-yl)-2-methylcyclopropyl)-1,2,4-oxadiazol-5(4H)-one]"
4,0.07,"Cc1cc(-c2nn3c(c2-n2ccn(-c4ccc5c(cnn5C)c4F)c2=O)C(C)N(C(=O)c2cc4cc([C@H]5CCOC(C)(C)C5)ccc4n2[C@@]2(c4noc(=O)[nH]4)C[C@@H]2C)CC3)cc(C)c1F (single isomer, unassigned) [Compound 117a]"
5,0.18,"CCP(=O)(CC)c1ccc(-n2ccn(-c3c(-c4cc(C)c(F)c(C)c4)nn4c3C(C)N(C(=O)c3cc5cc(C6CCOCC6)ccc5n3C3(c5noc(=O)[nH]5)CC3)CC4)c2=O)cc1NC (stereo not shown) [Compound 104, 3-(1-(2-(3-(3-(4-(diethylphosphoryl)-3-(methylamino)phenyl)-2-oxo-2,3-dihydro-1H-imidazol-1-yl)-2-(4-fluoro-3,5-dimethylphenyl)-4-methyl-4,5,6,7-tetrahydropyrazolo[1,5-a]pyrazine-5-carbonyl)-5-(tetrahydro-2H-pyran-4-yl)-1H-indol-1-yl)cyclopropyl)-1,2,4-oxadiazol-5(4H)-one]"
6,0.18,"Cc1cc(-c2nn3c(c2-n2ccn(-c4ccc5c(cnn5C)c4F)c2=O)C(C)N(C(=O)c2cc4cc(C5CCOCC5)ccc4n2[C@@]2(c4noc(=O)[nH]4)C[C@@H]2C)CC3)cc(C)c1F (stereo partly drawn) [Compound 109a, 3-((1S,2S)-1-(2-(3-(3-(4-fluoro-1-methyl-1H-indazol-5-yl)-2-oxo-2,3-dihydro-1H-imidazol-1-yl)-2-(4-fluoro-3,5-dimethylphenyl)-4-methyl-4,5,6,7-tetrahydropyrazolo[1,5-a]pyrazine-5-carbonyl)-5-(tetrahydro-2H-pyran-4-yl)-1H-indol-1-yl)-2-methylcyclopropyl)-1,2,4-oxadiazol-5(4H)-one]"
7,0.13,"Cc1cc(-c2nn3c(c2-n2ccn(-c4ccc5c(cnn5C)c4F)c2=O)C(C)N(C(=O)c2cc4cc(C5CCOCC5)ccc4n2[C@@]2(c4noc(=O)[nH]4)C[C@@H]2C)CC3)cc(C)c1F (single isomer, unassigned) [Compound 110a]"
8,42,"CCP(=O)(CC)c1ccc(-n2ccn(-c3c(-c4cc(C)c(F)c(C)c4)nn4c3C(C)N(C(=O)c3cc5cc(C6CCOCC6)ccc5n3[C@@]3(c5noc(=O)[nH]5)C[C@@H]3C)CC4)c2=O)cc1NC (single isomer, unassigned) [Compound 112a]"
9,3300,"Cc1cc(-c2nn3c(c2-n2ccn(-c4ccc5c(cnn5C)c4)c2=O)CN(C(=O)c2cc4cc(C5CCOCC5)ccc4n2C2(c4noc(=O)[nH]4)CCC2)CC3)cc(C)c1F [Compound 102, 3-(1-(2-(2-(4-fluoro-3,5-dimethylphenyl)-3-(3-(1-methyl-1H-indazol-5-yl)-2-oxo-2,3-dihydro-1H-imidazol-1-yl)-4,5,6,7-tetrahydropyrazolo[1,5-a]pyrazine-5-carbonyl)-5-(tetrahydro-2H-pyran-4-yl)-1H-indol-1-yl)cyclobutyl)-1,2,4-oxadiazol-5(4H)-one]"
10,3.41,"Cc1cc(-c2nn3c(c2-n2ccn(-c4ccc5c(cnn5C)c4)c2=O)CN(C(=O)c2cc4cc(C5CCOCC5)ccc4n2C2(c4noc(=O)[nH]4)CC2)CC3)cc(C)c1F [Compound 101, 3-(1-(2-(2-(4-fluoro-3,5-dimethylphenyl)-3-(3-(1-methyl-1H-indazol-5-yl)-2-oxo-2,3-dihydro-1H-imidazol-1-yl)-4,5,6,7-tetrahydropyrazolo[1,5-a]pyrazine-5-carbonyl)-5-(tetrahydro-2H-pyran-4-yl)-1H-indol-1-yl)cyclopropyl)-1,2,4-oxadiazol-5(4H)-one]"
11,0.29,"Cc1cc(-c2nn3c(c2-n2ccn(-c4ccc5c(cnn5C)c4)c2=O)C(C)N(C(=O)c2cc4cc(C5CCOCC5)ccc4n2C2(c4noc(=O)[nH]4)CC2)CC3)cc(C)c1F (stereo not shown) [Compound 103, 3-(1-(2-(2-(4-fluoro-3,5-dimethylphenyl)-4-methyl-3-(3-(1-methyl-1H-indazol-5-yl)-2-oxo-2,3-dihydro-1H-imidazol-1-yl)-4,5,6,7-tetrahydropyrazolo[1,5-a]pyrazine-5-carbonyl)-5-(tetrahydro-2H-pyran-4-yl)-1H-indol-1-yl)cyclopropyl)-1,2,4-oxadiazol-5(4H)-one]"
12,0.17,"CCP(=O)(CC)c1ccc(-n2ccn(-c3c(-c4cc(C)c(F)c(C)c4)nn4c3C(C)N(C(=O)c3cc5cc([C@H]6CCOC(C)(C)C6)ccc5n3[C@@]3(c5noc(=O)[nH]5)C[C@@H]3C)CC4)c2=O)cc1NC (single isomer, unassigned) [Compound 113a]"
13,0.042,"CCP(=O)(CC)c1ccc(-n2ccn(-c3c(-c4cc(C)c(F)c(C)c4)nn4c3C(C)N(C(=O)c3cc5cc(C6CCOCC6)ccc5n3[C@@]3(c5noc(=O)[nH]5)C[C@@H]3C)CC4)c2=O)cc1NC (single isomer, unassigned) [Compound 111a]"
14,0.068,"CCP(=O)(CC)c1ccc(-n2ccn(-c3c(-c4cc(C)c(F)c(C)c4)nn4c3C(C)N(C(=O)c3cc5cc(N6CCOCC6)ccc5n3[C@@]3(c5noc(=O)[nH]5)C[C@@H]3C)CC4)c2=O)cc1NC (single isomer, unassigned) [Compound 114a]"
15,113,"Cc1cc(-c2nn3c(c2-n2ccn(-c4ccc5c(cnn5C)c4)c2=O)CN(C(=O)c2cc4cc(C5CCOCC5)ccc4n2[C@@]2(C(=O)O)C[C@@H]2C)CC3)cc(C)c1F [Compound 106a, (1S,2S)-1-(2-(2-(4-fluoro-3,5-dimethylphenyl)-3-(3-(1-methyl-1H-indazol-5-yl)-2-oxo-2,3-dihydro-1H-imidazol-1-yl)-4,5,6,7-tetrahydropyrazolo[1,5-a]pyrazine-5-carbonyl)-5-(tetrahydro-2H-pyran-4-yl)-1H-indol-1-yl)-2-methylcyclopropanecarboxylic acid]"
16,0.1,"CCP(=O)(CC)c1ccc(-n2ccn(-c3c(-c4cc(C)c(F)c(C)c4)nn4c3C(C)N(C(=O)c3cc5cc(C6CCOCC6)ccc5n3[C@@]3(c5noc(=O)[nH]5)C[C@@H]3C)CC4)c2=O)cc1NC (mixture of isomers) [Compound 108a, 3-((1S,2S)-1-(2-(3-(3-(4-(diethylphosphoryl)-3-(methylamino)phenyl)-2-oxo-2,3-dihydro-1H-imidazol-1-yl)-2-(4-fluoro-3,5-dimethylphenyl)-4-methyl-4,5,6,7-tetrahydropyrazolo[1,5-a]pyrazine-5-carbonyl)-5-(tetrahydro-2H-pyran-4-yl)-1H-indol-1-yl)-2-methylcyclopropyl)-1,2,4-oxadiazol-5(4H)-one]"

# Same assay, conditions: HEK293/CRE-Luc cell line (HDB), 30 min incubation, read-out: GLP1R cAMP Stimulation DR: pEC50 (M) [Species: Human, Assay Cell Line: HDB] (converted)
row,EC50 [nM],Compound
1,2190,"Cc1cc(-c2nn3c(c2-n2ccn(-c4ccc5c(cnn5C)c4)c2=O)CN(C(=O)c2cc4cc(C5CCOCC5)ccc4n2C2(c4noc(=O)[nH]4)CCC2)CC3)cc(C)c1F [Compound 102, 3-(1-(2-(2-(4-fluoro-3,5-dimethylphenyl)-3-(3-(1-methyl-1H-indazol-5-yl)-2-oxo-2,3-dihydro-1H-imidazol-1-yl)-4,5,6,7-tetrahydropyrazolo[1,5-a]pyrazine-5-carbonyl)-5-(tetrahydro-2H-pyran-4-yl)-1H-indol-1-yl)cyclobutyl)-1,2,4-oxadiazol-5(4H)-one]"
2,3.31,"Cc1cc(-c2nn3c(c2-n2ccn(-c4ccc5c(cnn5C)c4)c2=O)CN(C(=O)c2cc4cc(C5CCOCC5)ccc4n2C2(c4noc(=O)[nH]4)CC2)CC3)cc(C)c1F [Compound 101, 3-(1-(2-(2-(4-fluoro-3,5-dimethylphenyl)-3-(3-(1-methyl-1H-indazol-5-yl)-2-oxo-2,3-dihydro-1H-imidazol-1-yl)-4,5,6,7-tetrahydropyrazolo[1,5-a]pyrazine-5-carbonyl)-5-(tetrahydro-2H-pyran-4-yl)-1H-indol-1-yl)cyclopropyl)-1,2,4-oxadiazol-5(4H)-one]"
3,0.0316,"CNc1cc(-n2ccn(-c3c(-c4cc(C)c(F)c(C)c4)nn4c3C(C)N(C(=O)c3cc5cc(C6CCOCC6)ccc5n3[C@@]3(c5noc(=O)[nH]5)C[C@@H]3C)CC4)c2=O)ccc1P(C)(C)=O (single isomer, unassigned) [Compound 118a]"
